In the supplement of paper PMC12350171:

What was measured:
[1] = test system: Fusobacterium nucleatum subsp. Nucleatum; test: IC25 growth inhibition; higher = less potent
Method in brief: (§1)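 Monocultures grown overnight in mGAM were added to pre-reduced plates holding twofold drug dilutions, giving a starting OD578 of 0.01 and 1% DMSO (or water). Growth was followed anaerobically by hourly OD578 readings in a plate reader, with at least three biological replicates. The median growth-curve AUC per concentration was forced to be monotonic. IC25 was the lowest concentration with median AUC below 0.75, reported as a tested interval.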

Escherichia coli ED1a = test: IC25 growth inhibition; higher = less potent
Method in brief: as §1

Clostridium perfringens = test: IC25 growth inhibition; higher = less potent
Method in brief: as §1

Vibrio cholerae = test: IC25 growth inhibition; higher = less potent
Method in brief: as §1

Ruminococcus gnavus = test: IC25 growth inhibition; higher = less potent
Method in brief: as §1

[2] = test system: Bacteroides thetaiotaomicron; test: IC25 growth inhibition; higher = less potent
Method in brief: as §1

Clostridium ramosum = test: IC25 growth inhibition; higher = less potent
Method in brief: as §1

Shigella flexneri = test: IC25 growth inhibition; higher = less potent
Method in brief: as §1

Eubacterium rectale = test: IC25 growth inhibition; higher = less potent
Method in brief: as §1

Parabacteroides merdae = test: IC25 growth inhibition; higher = less potent
Method in brief: as §1

[3] = test system: Streptococcus parasanguinis; test: IC25 growth inhibition; higher = less potent
Method in brief: as §1

Coprococcus comes = test: IC25 growth inhibition; higher = less potent
Method in brief: as §1

Bacteroides fragilis NT = test: IC25 growth inhibition; higher = less potent
Method in brief: as §1

Collinsella aerofaciens = test: IC25 growth inhibition; higher = less potent
Method in brief: as §1

Bacteroides uniformis = test: IC25 growth inhibition; higher = less potent
Method in brief: as §1

[4] = test system: Salmonella enterica typhimurium; test: IC25 growth inhibition; higher = less potent
Method in brief: as §1

[5] = test system: Yersinia pseudotuberculosis; test: IC25 growth inhibition; higher = less potent
Method in brief: as §1

Bacteroides vulgatus = test: IC25 growth inhibition; higher = less potent
Method in brief: as §1

Streptococcus salivarius = test: IC25 growth inhibition; higher = less potent
Method in brief: as §1

Clostridium bolteae = test: IC25 growth inhibition; higher = less potent
Method in brief: as §1

Dorea formicigenerans = test: IC25 growth inhibition; higher = less potent
Method in brief: as §1

[6] = test system: Clostridium saccharolyticum; test: IC25 growth inhibition; higher = less potent
Method in brief: as §1

Roseburia intestinalis = test: IC25 growth inhibition; higher = less potent
Method in brief: as §1

[7] = test system: Yersinia enterocolitica WA-314; test: IC25 growth inhibition; higher = less potent
Method in brief: as §1

[8] = test system: Com21 synthetic gut community; test: community biomass OD578 after 24 h drug treatment relative to untreated (fraction of untreated control); higher = more community growth; conditions: community: Com21 (Com20 + E. coli ED1a)
Experimental: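 Com21 (Com20 plus E. coli ED1a) was treated with drug for 24 h under anaerobic conditions in mGAM. Community OD578 was then measured and normalised to untreated Com21; mean of 3 biological replicates.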

[9] = drug pretreatment concentration 10 µM
[10] = drug pretreatment concentration 20 µM
[11] = drug pretreatment concentration 40 µM
[12] = drug pretreatment concentration 80 µM
[13] = drug pretreatment concentration 160 µM
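For IC25 growth inhibition in this document: lowest concentration where monotonic median growth AUC falls below 0.75 of drug-free control.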

SMILES | IC25 growth inhibition [1] [µM] | IC25 growth inhibition (Escherichia coli ED1a) [µM] | IC25 growth inhibition (Clostridium perfringens) [µM] | IC25 growth inhibition (Vibrio cholerae) [µM] | IC25 growth inhibition (Ruminococcus gnavus) [µM] | IC25 growth inhibition [2] [µM] | IC25 growth inhibition (Clostridium ramosum) [µM] | IC25 growth inhibition (Shigella flexneri) [µM] | IC25 growth inhibition (Eubacterium rectale) [µM] | IC25 growth inhibition (Parabacteroides merdae) [µM] | IC25 growth inhibition [3] [µM] | IC25 growth inhibition (Coprococcus comes) [µM] | IC25 growth inhibition (Bacteroides fragilis NT) [µM] | IC25 growth inhibition (Collinsella aerofaciens) [µM] | IC25 growth inhibition (Bacteroides uniformis) [µM] | IC25 growth inhibition [4] [µM] | IC25 growth inhibition [5] [µM] | IC25 growth inhibition (Bacteroides vulgatus) [µM] | IC25 growth inhibition (Streptococcus salivarius) [µM] | IC25 growth inhibition (Clostridium bolteae) [µM] | IC25 growth inhibition (Dorea formicigenerans) [µM] | IC25 growth inhibition [6] [µM] | IC25 growth inhibition (Roseburia intestinalis) [µM] | IC25 growth inhibition [7] [µM] | community biomass OD578 [8, 9] | community biomass OD578 [8, 10] | community biomass OD578 [8, 11] | community biomass OD578 [8, 12] | community biomass OD578 [8, 13] | community biomass OD578 ([8]; drug pretreatment concentration 2.5 µM) | community biomass OD578 ([8]; drug pretreatment concentration 5 µM)
O=c1[nH]c(=O)n([C@H]2C[C@H](O)[C@@H](CO)O2)cc1F [Floxuridine] | ≤ 80 | ≤ 10 | < 1.25 | ≤ 10 | ≤ 2.5 | < 1.25 | < 1.25 | ≤ 20 | > 160 | > 160 | < 1.25 | > 160 | < 1.25 | > 160 | < 1.25 | ≤ 40 | ≤ 5 | < 1.25 | < 1.25 | ≤ 80 | > 160 | ≤ 160 | > 160 | ≤ 20 | 0.993 | 0.907 | 0.886 | 0.882 | 0.88 | – | –
OC(Cn1cncn1)(Cn1cncn1)c1ccc(F)cc1F [Fluconazole] | > 160 | > 160 | > 160 | > 160 | > 160 | > 160 | > 160 | > 160 | ≤ 40 | > 160 | > 160 | > 160 | > 160 | ≤ 160 | > 160 | > 160 | > 160 | > 160 | > 160 | > 160 | > 160 | > 160 | > 160 | > 160 | 0.936 | 1.02 | 0.993 | 0.99 | 1.04 | – | –
CC(=O)N1CCN(c2ccc(OCC3COC(Cn4ccnc4)(c4ccc(Cl)cc4Cl)O3)cc2)CC1 (stereo unspecified) [Ketoconazole] | ≤ 160 | > 160 | ≤ 80 | > 160 | ≤ 80 | ≤ 80 | > 160 | > 80 | ≤ 40 | ≤ 40 | > 80 | ≤ 40 | ≤ 80 | ≤ 80 | ≤ 40 | > 160 | > 160 | ≤ 40 | ≤ 80 | > 160 | ≤ 40 | ≤ 80 | ≤ 80 | > 80 | 0.941 | 0.979 | 0.953 | 0.928 | 0.731 | – | –
N[C@@H](Cc1cc(I)c(Oc2cc(I)c(O)c(I)c2)c(I)c1)C(=O)O [L-Thyroxin] | > 160 | > 40 | > 160 | > 160 | > 160 | > 160 | > 160 | > 160 | > 160 | > 160 | > 160 | > 160 | > 160 | > 160 | > 160 | > 160 | > 160 | > 160 | > 160 | > 160 | ≤ 80 | > 160 | > 160 | > 160 | 1.01 | 1.03 | 1.02 | – | – | 0.996 | 0.999
